According to patent US9840467B2, “Arylhydrazides containing a 2-pyridone moiety as selective antibacterial agents” (ABAC THERAPEUTICS, S.L., priority 2014, dated 2017):
In brackets after ≈: the same amount, converted by molar mass. Read-outs that look alike come from different tables or passages of the source.

Columns and labels:
E. aerogenes = assay: MIC, CLSI microtiter dilution, E. aerogenes; format: cell-based, Enterobacter aerogenes
Method: (§1) The products of the present invention were tested for their activity against A. baumannii as well as against the following bacteria: Staphylococcus aureus (S. aureus), Streptococcus pneumoniae (S. pneumoniae), Enterococcus faecium (E. faecium), Pseudomonas aeruginosa (P. aeruginosa), Klebsiella pneumoniae (K. pneumoniae.), Enterobacter aerogenes (E. aerogenes) and Escherichia coli (E. coli).
(§2) Minimal inhibitory concentrations (MICs) were determined using a standard microtiter dilution method, according to the Clinical and Laboratory Standards Institute (CLSI) procedures, in particular according to M07-A9: “Methods for Dilution Antimicrobial Susceptibility Tests for Bacteria That Grow Aerobically; Approved Standard—Ninth Edition”.
(§3) Briefly, compounds were dissolved with dimethyl sulfoxide (DMSO) at 12.8 mg/mL. Serial two-fold dilutions of compounds were performed in DMSO and 1 μl of each dilution were transferred into microtiter culture plates, followed by 100 μl of inoculated culture media to give a final microorganism concentration of 5×10^5 colony-forming units/mL. Plates were incubated at 37° C. for 24 hours and MICs determined as the lowest compound concentration that inhibited growth. Media used in determinations were Cation adjusted Mueller-Hinton Broth for all the microorganisms except for S. pneumoniae and E. faecium whose culture media were supplemented with 2.5% of lysed horse blood. Incubations were performed at air atmosphere except S. pneumoniae cultures that were incubated with 5% CO2 atmosphere.

A. baumannii = assay: MIC, CLSI microtiter dilution, A. baumannii; format: cell-based, Acinetobacter baumannii
Method: as §1, §2, §3

E. coli = assay: MIC, CLSI microtiter dilution, E. coli; format: cell-based, Escherichia coli
Method: as §1, §2, §3

P. aeruginosa = assay: MIC, CLSI microtiter dilution, P. aeruginosa; format: cell-based, Pseudomonas aeruginosa
Method: as §1, §2, §3

E. faecium = assay: MIC, CLSI microtiter dilution, E. faecium; format: cell-based, Enterococcus faecium
Method: as §1, §2, §3

S. aureus = assay: MIC, CLSI microtiter dilution, S. aureus; format: cell-based, Staphylococcus aureus
Method: as §1, §2, §3

K. pneumoniae = assay: MIC, CLSI microtiter dilution, K. pneumoniae; format: cell-based, Klebsiella pneumoniae
Method: as §1, §2, §3

S. pneumoniae = assay: MIC, CLSI microtiter dilution, S. pneumoniae; format: cell-based, Streptococcus pneumoniae
Method: as §1, §2, §3

[1] = Klebsiella aerogenes, E. aerogenes, 37° C., 24 hours, Cation adjusted Mueller-Hinton Broth, read-out: MIC
[2] = Acinetobacter baumannii, A. baumannii, 37° C., 24 hours, Cation adjusted Mueller-Hinton Broth, read-out: MIC
[3] = Escherichia coli, E. coli, 37° C., 24 hours, Cation adjusted Mueller-Hinton Broth, read-out: MIC
[4] = Pseudomonas aeruginosa, P. aeruginosa, 37° C., 24 hours, Cation adjusted Mueller-Hinton Broth, read-out: MIC
[5] = Enterococcus faecium, E. faecium, 37° C., 24 hours, 2.5% lysed horse blood, read-out: MIC
[6] = Staphylococcus aureus, S. aureus, 37° C., 24 hours, Cation adjusted Mueller-Hinton Broth, read-out: MIC
[7] = Klebsiella pneumoniae, K. pneumoniae, 37° C., 24 hours, Cation adjusted Mueller-Hinton Broth, read-out: MIC
[8] = Streptococcus pneumoniae, S. pneumoniae, 37° C., 24 hours, 2.5% lysed horse blood, 5% CO2, read-out: MIC

Row | Molecule | MIC (E. aerogenes; Klebsiella aerogenes, 24 h) [µg/mL] | MIC (A. baumannii; Acinetobacter baumannii, 24 h) [µg/mL] | MIC (E. coli; Escherichia coli, 24 h) [µg/mL] | MIC (P. aeruginosa; Pseudomonas aeruginosa, 24 h) [µg/mL] | MIC (E. faecium; Enterococcus faecium, 24 h) [µg/mL] | MIC (S. aureus; Staphylococcus aureus, 24 h) [µg/mL] | MIC (K. pneumoniae; Klebsiella pneumoniae, 24 h) [µg/mL] | MIC (S. pneumoniae; Streptococcus pneumoniae, 24 h) [µg/mL] | MIC (E. aerogenes; [1]) [µg/mL] | MIC (A. baumannii; [2]) [µg/mL] | MIC (E. coli; [3]) [µg/mL] | MIC (P. aeruginosa; [4]) [µg/mL] | MIC (E. faecium; [5]) [µg/mL] | MIC (S. aureus; [6]) [µg/mL] | MIC (K. pneumoniae; [7]) [µg/mL] | MIC (S. pneumoniae; [8]) [µg/mL] | further results
1 | CN(C)C(=O)Cn1c(C(=O)NNc2ccc(F)cc2)cccc1=O [Ex. 14, 1-(2-(Dimethylamino)-2-oxoethyl)-6-oxo-1,6-dihydropyridine-2-carboxylic acid N′-(4-fluorophenyl)-hydrazide] | > 128 | 0.25 (≈ 0.752 µM) | > 128 | > 128 | > 128 | > 128 | > 128 | > 128 |  |  |  |  |  |  |  |  | 
2 | Cn1cccc(C(=O)NNc2ccc(F)cc2)c1=O [Ex. 17, 1-Methyl-2-oxo-1,2-dihydropyridine-3-carboxylic acid N′-(4-fluorophenyl)-hydrazide] | > 128 | 0.5 (≈ 1.91 µM) | > 128 | > 128 | > 128 | > 128 | > 128 | > 128 |  |  |  |  |  |  |  |  | 
3 | CN(NC(=O)c1cccc(=O)n1C)c1ccc(F)cc1 [Ex. 20, 1-Methyl-6-oxo-1,6-dihydropyridine-2-carboxylic acid N′-(4-fluorophenyl)-N′-methyl-hydrazide] | > 128 | 64 (≈ 232 µM) | > 128 | > 128 | > 128 | > 128 | > 128 | > 128 |  |  |  |  |  |  |  |  | 
4 | COc1ccc(NNC(=O)c2cccc(=O)n2C)cc1 [Ex. 9, 1-Methyl-6-oxo-1,6-dihydropyridine-2-carboxylic acid N′-(4-methoxyphenyl)-hydrazide] | > 128 | 0.25 (≈ 0.915 µM) | > 128 | > 128 | > 128 | > 128 | > 128 | > 128 |  |  |  |  |  |  |  |  | 
5 | Cn1c(C(=O)NNc2ccc(F)cc2)cccc1=O [Ex. 1, 1-Methyl-6-oxo-1,6-dihydro-pyridine-2-carboxylic acid N′-(4-fluoro-phenyl)-hydrazide] |  |  |  |  |  |  |  |  | > 128 | 0.5 (≈ 1.91 µM) | 64 (≈ 245 µM) | > 128 | > 128 | > 128 | > 128 | > 128 | 
6 | Cc1ccc(NNC(=O)c2cccc(=O)n2C)cc1 [Ex. 11, 1-Methyl-6-oxo-1,6-dihydropyridine-2-carboxylic acid N′-(4-methylphenyl)-hydrazide] | > 128 | 0.5 (≈ 1.94 µM) | > 128 | > 128 | > 128 | > 128 | > 128 | > 128 |  |  |  |  |  |  |  |  | 
7 | Cn1ccc(C(=O)NNc2ccc(F)cc2)cc1=O [Ex. 18, 1-Methyl-2-oxo-1,2-dihydropyridine-4-carboxylic acid N′-(4-fluorophenyl)-hydrazide] |  |  |  |  |  |  |  |  | > 128 | 0.25 (≈ 0.957 µM) | > 128 | > 128 | > 128 | > 128 | > 128 | > 128 | 
8 | Cn1c(C(=O)NNc2c(F)cccc2F)cccc1=O [Ex. 13, 1-Methyl-6-oxo-1,6-dihydropyridine-2-carboxylic acid N′-(2,6-difluorophenyl)-hydrazide] | > 128 | 0.5 (≈ 1.79 µM) | > 128 | > 128 | > 128 | > 128 | > 128 | > 128 |  |  |  |  |  |  |  |  | 
9 | O=C(NNc1ccc(F)cc1)c1cccc(=O)n1C(F)F [Ex. 4, 1-Difluoromethyl-6-oxo-1,6-dihydro-pyridine-2-carboxylic acid N′-(4-fluorophenyl)-hydrazide] |  |  |  |  |  |  |  |  | > 128 | 1 (≈ 3.36 µM) | > 128 | > 128 | > 128 | > 128 | > 128 | > 128 | 
10 | Cn1c(C(=O)NNc2ccc(F)cc2F)cccc1=O [Ex. 12, 1-Methyl-6-oxo-1,6-dihydropyridine-2-carboxylic acid N′-(2,4-difluorophenyl)-hydrazide] | > 128 | 0.25 (≈ 0.895 µM) | > 128 | > 128 | > 128 | > 128 | > 128 | > 128 |  |  |  |  |  |  |  |  | 
11 | Cn1c(C(=O)NNc2ccc(Cl)cc2)cccc1=O [Ex. 10, 1-Methyl-6-oxo-1,6-dihydropyridine-2-carboxylic acid N′-(4-chlorophenyl)-hydrazide] | > 128 | 0.25 (≈ 0.9 µM) | > 128 | > 128 | > 128 | > 128 | > 128 | > 128 |  |  |  |  |  |  |  |  | 
12 | COCCn1c(C(=O)NNc2ccc(F)cc2)cccc1=O [Ex. 3, 1-(2-methoxyethyl)-6-oxo-1,6-dihydro-pyridine-2-carboxylic acid N′-(4-fluorophenyl)-hydrazide] | > 128 | < 0.25 | > 128 | > 128 | > 128 | > 128 | > 128 | > 128 |  |  |  |  |  |  |  |  | 
13 | NC(=O)Cn1c(C(=O)NNc2ccc(F)cc2)cccc1=O [Ex. 15, 1-(2-Amino-2-oxoethyl)-6-oxo-1,6-dihydropyridine-2-carboxylic acid N′-(4-fluorophenyl)-hydrazide] | > 128 | 0.5 (≈ 1.64 µM) | > 128 | > 128 | > 128 | > 128 | > 128 | > 128 |  |  |  |  |  |  |  |  | 
14 | Cn1cc(C(=O)NNc2ccc(F)cc2)ccc1=O [Ex. 19, 1-Methyl-6-oxo-1,6-dihydropyridine-3-carboxylic acid N′-(4-fluorophenyl)-hydrazide] |  |  |  |  |  |  |  |  | > 128 | 0.25 (≈ 0.957 µM) | > 128 | > 128 | > 128 | > 128 | > 128 | > 128 | 
15 | CCn1cccc(C(=O)NNc2ccc(F)cc2)c1=O [Ex. 16, 1-Ethyl-2-oxo-1,2-dihydropyridine-3-carboxylic acid N′-(4-fluorophenyl)-hydrazide] |  |  |  |  |  |  |  |  | > 128 | 0.5 (≈ 1.82 µM) | > 128 | > 128 | > 128 | > 128 | > 128 | > 128 | 
16 | 1-Cyclopropylmethyl-6-oxo-1,6-dihydro-pyridine-2-carboxylic acid N′-(4-fluorophenyl)-hydrazide [Ex. 6] |  |  |  |  |  |  |  |  |  |  |  |  |  |  |  |  | MIC (E. aerogenes; E. aerogenes, 37° C., 24 hours, Cation adjusted Mueller-Hinton Broth): >128 µg/mL; MIC (A. baumannii; A. baumannii, 37° C., 24 hours, Cation adjusted Mueller-Hinton Broth): <0.25 µg/mL; MIC (E. coli; E. coli, 37° C., 24 hours, Cation adjusted Mueller-Hinton Broth): >128 µg/mL; MIC (P. aeruginosa; P. aeruginosa, 37° C., 24 hours, Cation adjusted Mueller-Hinton Broth): >128 µg/mL; MIC (E. faecium; E. faecium, 37° C., 24 hours, 2.5% lysed horse blood): >128 µg/mL; MIC (S. aureus; S. aureus, 37° C., 24 hours, Cation adjusted Mueller-Hinton Broth): >128 µg/mL; MIC (K. pneumoniae; K. pneumoniae, 37° C., 24 hours, Cation adjusted Mueller-Hinton Broth): >128 µg/mL; MIC (S. pneumoniae; S. pneumoniae, 37° C., 24 hours, 2.5% lysed horse blood, 5% CO2): >128 µg/mL
17 | O=C(NNc1ccc(F)cc1)c1cccc(=O)n1Cc1ccccc1 [Ex. 5, 1-Benzyl-6-oxo-1,6-dihydro-pyridine-2-carboxylic acid N′-(4-fluorophenyl)-hydrazide] |  |  |  |  |  |  |  |  | > 128 | 0.25 (≈ 0.741 µM) | > 128 | > 128 | > 128 | > 128 | > 128 | > 128 | 
18 | COc1cc(C(=O)NNc2ccc(F)cc2)n(C)c(=O)c1 [Ex. 21, 4-Methoxy-1-methyl-6-oxo-1,6-dihydropyridine-2-carboxylic acid N′-(4-fluorophenyl)-hydrazide] |  |  |  |  |  |  |  |  | > 128 | 0.25 (≈ 0.858 µM) | > 128 | > 128 | > 128 | > 128 | > 128 | > 128 | 
19 | O=C(NNc1ccc(F)cc1)c1cccc(=O)n1CC(F)(F)F [Ex. 8, 6-Oxo-1-(2,2,2-trifluoroethyl)-1,6-dihydropyridine-2-carboxylic acid N′-(4-fluorophenyl)-hydrazide] | > 128 | 0.25 (≈ 0.759 µM) | > 128 | > 128 | > 128 | > 128 | > 128 | > 128 |  |  |  |  |  |  |  |  | 
